Measured values as given in ChEMBL document CHEMBL1201862, “PubChem BioAssay data set” (2004).
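Where inhibition never reached the appropriate level, the endpoint shown equals the highest concentration tested. Otherwise, values were interpolated linearly from a five-concentration, 48-hour dose response in 96-well plates. Here, GI50 denotes the concentration required for 50% inhibition of growth.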 The source made the active and inactive calls. Rule as the data show it: active = GI50 up to about 1.1 µM and inactive = higher.

How the values were obtained:
Assay in all cases: growth of human tumour cells (NCI), 48 h
[1] = test system: RPMI-8226
[2] = test system: HL-60
[3] = test system: UACC-62
[4] = test system: NCI-H522
[5] = test system: MCF7
[6] = test system: DMS-273
[7] = test system: SW-620
[8] = test system: UO-31
[9] = test system: OVCAR-4
[10] = test system: OVCAR-8
[11] = test system: A498
[12] = test system: EKVX
[13] = test system: SN12C
[14] = test system: OVCAR-5
[15] = test system: ACHN

Measured: GI50

COc1cc(/C=C(/C#N)C(N)=O)ccc1O
inactive: [1] > 100 µM | [2] > 100 µM | [3] > 100 µM | [4] > 100 µM | [5] > 100 µM | [6] > 100 µM | [7] > 100 µM | [8] > 41.5 µM | [9] > 100 µM | [10] > 100 µM | [11] > 63.2 µM | [12] > 100 µM | [13] > 100 µM | [14] > 100 µM

CCCc1nc(NC#N)nc(C(=O)NC23CC4CC(CC(C4)C2)C3)c1C
inactive: [1] > 100 µM | [2] > 100 µM | [3] > 100 µM | [4] > 100 µM | [6] > 100 µM | [7] > 100 µM | [8] > 100 µM | [9] > 100 µM | [15] > 100 µM | [10] > 100 µM | [11] > 100 µM | [12] > 100 µM | [13] > 100 µM | [14] > 100 µM

O=c1cccccc1NCCOCCNc1cccccc1=O
inactive: [1] > 100 µM | [2] > 100 µM | [3] > 100 µM | [4] > 100 µM | [6] > 100 µM | [7] > 100 µM | [8] > 100 µM | [9] > 100 µM | [15] > 100 µM | [10] > 100 µM | [11] > 100 µM | [12] > 100 µM | [13] > 100 µM | [14] > 100 µM

N/C(=N\O)N/N=C\c1c(O)cc(O)cc1O
inactive: [1] 15.6 µM | [2] 26.1 µM | [3] 15.8 µM | [4] 39.7 µM | [5] 36.4 µM | [6] 14.3 µM | [7] > 70.3 µM | [8] 26 µM | [9] > 68.4 µM | [10] 39.4 µM | [11] > 100 µM | [12] > 35.2 µM | [13] 78.7 µM | [14] > 100 µM

CC1=C2C(O)C(C(C)C(=O)NCC(C)C)CCC2(C)C=CC1=O (centres undefined)
inactive: [1] > 100 µM | [2] > 100 µM | [3] > 100 µM | [4] > 100 µM | [5] > 100 µM | [6] > 100 µM | [7] > 100 µM | [8] > 100 µM | [9] > 100 µM | [10] > 100 µM | [11] > 100 µM | [12] > 100 µM | [13] > 100 µM | [14] > 100 µM

O=C1c2ccccc2OCC1/C=N/O (centres undefined)
inactive: [1] > 100 µM | [2] > 100 µM | [3] > 100 µM | [4] 24.9 µM | [5] 29.6 µM | [6] 99.8 µM | [7] > 100 µM | [8] > 100 µM | [9] > 62.5 µM | [10] > 100 µM | [11] > 100 µM | [12] 65.6 µM | [13] > 80.5 µM | [14] > 100 µM
